Values joined by “and” are separate entries in the source; they are usually repeats but may differ in a detail not shown here. Equal entries are not always repeated. One block for each compound: values may come before it.
What was measured:
Dipeptidyl peptidase 4 = Dipeptidyl peptidase 4 (Homo sapiens, UniProt P27487); assay: Inhibition of DPP4
Cytochrome P450 2C19 = Cytochrome P450 2C19 (Homo sapiens, UniProt P33261); assay: Inhibition of CYP2C19; type: ADME
Cytochrome P450 3A4 [1] = target: T1, Cytochrome P450 3A4 (Homo sapiens, UniProt P08684); assay: Inhibition of CYP3A4 in presence of the substrate 7-bezyloxy-4-trifluoromethyl coumarin; type: ADME
Cytochrome P450 3A4 [2] = target: T1, Cytochrome P450 3A4; assay: Inhibition of CYP3A4 in presence of the substrate 7-bezyloxy resorufin; type: ADME
[3] = target: T2, Voltage-gated inwardly rectifying potassium channel KCNH2 (Homo sapiens, UniProt Q12809); assay: Inhibition of human ERG by flux assay
[4] = target: T3, Nuclear receptor subfamily 1 group I member 2 (Homo sapiens, UniProt O75469); assay: Inhibition of PXR
T3 sequence (O75469 whole entry): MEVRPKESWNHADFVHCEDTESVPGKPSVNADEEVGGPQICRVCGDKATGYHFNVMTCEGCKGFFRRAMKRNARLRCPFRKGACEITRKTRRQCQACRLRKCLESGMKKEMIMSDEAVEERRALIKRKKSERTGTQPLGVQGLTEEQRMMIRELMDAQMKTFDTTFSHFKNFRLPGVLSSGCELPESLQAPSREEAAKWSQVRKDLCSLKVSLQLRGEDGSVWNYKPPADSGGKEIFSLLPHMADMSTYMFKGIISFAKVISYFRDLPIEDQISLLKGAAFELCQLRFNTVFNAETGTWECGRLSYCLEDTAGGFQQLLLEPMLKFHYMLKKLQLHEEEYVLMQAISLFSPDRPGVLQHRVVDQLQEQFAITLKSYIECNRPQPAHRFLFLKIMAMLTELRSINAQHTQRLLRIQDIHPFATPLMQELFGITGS

Dipeptidyl peptidase 8 = Dipeptidyl peptidase 8 (Homo sapiens, UniProt Q6V1X1); assay: Inhibition of DPP8
Dipeptidyl peptidase 9 = Dipeptidyl peptidase 9 (Homo sapiens, UniProt Q86TI2); assay: Inhibition of DPP9
hERG (KCNH2) = hERG (KCNH2) (Homo sapiens, UniProt Q12809); assay: (§1) Inhibition of human ERG at 10 uM by patch clamp assay; conditions: INH
[5] = Cmax in rat at 10 umol/kg; type: ADME, organism-based; set-up: dose 10 umol/kg; conditions: in vivo
Cytochrome P450 3A4 [6] = target: T1, Cytochrome P450 3A4; assay: Inhibition of CYP3A4 up to 40 uM; type: ADME
[7] = target: T2, Voltage-gated inwardly rectifying potassium channel KCNH2
[8] = target: T2, Voltage-gated inwardly rectifying potassium channel KCNH2; assay: as §1; conditions: 10 µM
Cytochrome P450 3A4 [9] = target: T1, Cytochrome P450 3A4; assay: Inhibition of CYP3A4; type: ADME
[10] = Oral availability in rat; type: ADME, organism-based; conditions: in vivo
[11] = Half life in rat; type: ADME, organism-based; conditions: in vivo
[12] = Tmax in rat at 10 umol/kg; type: ADME, organism-based; conditions: in vivo

T2 sequence (Q12809 whole entry): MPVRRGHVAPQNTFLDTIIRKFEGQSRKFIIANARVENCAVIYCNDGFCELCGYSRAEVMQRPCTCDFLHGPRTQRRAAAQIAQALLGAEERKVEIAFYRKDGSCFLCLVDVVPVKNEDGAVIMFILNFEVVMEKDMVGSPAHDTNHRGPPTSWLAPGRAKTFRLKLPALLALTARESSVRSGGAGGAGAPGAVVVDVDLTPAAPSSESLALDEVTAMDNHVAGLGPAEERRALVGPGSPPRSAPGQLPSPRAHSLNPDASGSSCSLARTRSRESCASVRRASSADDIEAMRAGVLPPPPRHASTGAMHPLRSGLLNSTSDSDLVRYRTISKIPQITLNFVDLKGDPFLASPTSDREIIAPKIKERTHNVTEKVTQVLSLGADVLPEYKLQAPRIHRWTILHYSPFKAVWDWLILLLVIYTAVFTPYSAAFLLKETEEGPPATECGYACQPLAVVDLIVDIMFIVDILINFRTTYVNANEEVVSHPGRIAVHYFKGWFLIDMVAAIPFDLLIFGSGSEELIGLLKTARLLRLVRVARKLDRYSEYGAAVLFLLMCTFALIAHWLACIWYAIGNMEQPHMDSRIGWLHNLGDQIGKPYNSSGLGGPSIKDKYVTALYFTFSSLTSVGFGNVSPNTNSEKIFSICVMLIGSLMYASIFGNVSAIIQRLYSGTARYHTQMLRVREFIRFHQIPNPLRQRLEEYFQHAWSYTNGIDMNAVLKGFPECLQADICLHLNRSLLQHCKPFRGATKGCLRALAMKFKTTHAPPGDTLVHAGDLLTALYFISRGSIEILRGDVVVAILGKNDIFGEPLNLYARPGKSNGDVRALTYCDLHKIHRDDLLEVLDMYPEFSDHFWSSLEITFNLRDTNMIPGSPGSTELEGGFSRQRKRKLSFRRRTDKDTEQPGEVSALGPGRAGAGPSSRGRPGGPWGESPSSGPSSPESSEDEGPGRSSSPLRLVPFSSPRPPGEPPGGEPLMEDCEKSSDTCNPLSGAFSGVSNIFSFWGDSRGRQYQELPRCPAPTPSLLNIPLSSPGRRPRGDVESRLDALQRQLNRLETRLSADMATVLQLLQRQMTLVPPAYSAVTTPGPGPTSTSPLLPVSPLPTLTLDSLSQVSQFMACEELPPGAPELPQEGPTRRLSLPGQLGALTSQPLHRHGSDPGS
Chain of hERG (KCNH2) (Q12809 whole entry): as above
Chain of Cytochrome P450 2C19 (P33261 whole entry): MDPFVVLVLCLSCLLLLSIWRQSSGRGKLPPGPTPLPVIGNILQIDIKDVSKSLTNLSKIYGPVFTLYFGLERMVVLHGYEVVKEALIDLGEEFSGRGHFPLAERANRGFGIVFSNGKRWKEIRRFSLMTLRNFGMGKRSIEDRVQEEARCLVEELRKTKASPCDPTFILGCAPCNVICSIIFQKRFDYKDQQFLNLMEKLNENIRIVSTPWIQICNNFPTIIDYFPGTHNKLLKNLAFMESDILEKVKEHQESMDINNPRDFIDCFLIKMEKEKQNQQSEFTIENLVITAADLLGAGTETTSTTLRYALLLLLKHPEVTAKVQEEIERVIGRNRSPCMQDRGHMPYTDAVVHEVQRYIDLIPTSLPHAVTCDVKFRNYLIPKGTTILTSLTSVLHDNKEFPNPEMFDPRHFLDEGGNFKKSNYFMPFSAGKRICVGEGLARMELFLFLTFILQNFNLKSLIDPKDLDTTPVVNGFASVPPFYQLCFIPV
Chain of Dipeptidyl peptidase 9 (Q86TI2 whole entry): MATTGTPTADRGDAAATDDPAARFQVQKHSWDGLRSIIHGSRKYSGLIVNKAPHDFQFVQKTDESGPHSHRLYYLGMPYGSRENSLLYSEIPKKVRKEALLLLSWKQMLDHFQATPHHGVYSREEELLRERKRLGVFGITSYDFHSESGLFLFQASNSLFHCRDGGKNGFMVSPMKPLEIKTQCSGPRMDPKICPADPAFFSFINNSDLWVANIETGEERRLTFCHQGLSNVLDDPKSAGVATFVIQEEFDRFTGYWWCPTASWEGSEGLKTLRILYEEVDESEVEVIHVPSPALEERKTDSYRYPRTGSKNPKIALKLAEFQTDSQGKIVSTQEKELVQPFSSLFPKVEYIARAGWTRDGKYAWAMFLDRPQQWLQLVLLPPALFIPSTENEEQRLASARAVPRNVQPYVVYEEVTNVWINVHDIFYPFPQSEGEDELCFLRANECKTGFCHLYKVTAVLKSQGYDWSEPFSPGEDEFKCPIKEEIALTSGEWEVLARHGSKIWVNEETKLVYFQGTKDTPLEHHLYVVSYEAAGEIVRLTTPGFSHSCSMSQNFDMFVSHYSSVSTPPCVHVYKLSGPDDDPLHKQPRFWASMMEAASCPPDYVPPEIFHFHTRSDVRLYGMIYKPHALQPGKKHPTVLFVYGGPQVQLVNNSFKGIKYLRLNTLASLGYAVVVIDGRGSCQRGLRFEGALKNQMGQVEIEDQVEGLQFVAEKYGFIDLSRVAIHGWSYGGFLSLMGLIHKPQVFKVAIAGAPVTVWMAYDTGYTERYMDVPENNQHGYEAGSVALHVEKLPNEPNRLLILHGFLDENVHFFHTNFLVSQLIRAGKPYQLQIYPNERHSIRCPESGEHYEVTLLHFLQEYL
T1 sequence (P08684 whole entry): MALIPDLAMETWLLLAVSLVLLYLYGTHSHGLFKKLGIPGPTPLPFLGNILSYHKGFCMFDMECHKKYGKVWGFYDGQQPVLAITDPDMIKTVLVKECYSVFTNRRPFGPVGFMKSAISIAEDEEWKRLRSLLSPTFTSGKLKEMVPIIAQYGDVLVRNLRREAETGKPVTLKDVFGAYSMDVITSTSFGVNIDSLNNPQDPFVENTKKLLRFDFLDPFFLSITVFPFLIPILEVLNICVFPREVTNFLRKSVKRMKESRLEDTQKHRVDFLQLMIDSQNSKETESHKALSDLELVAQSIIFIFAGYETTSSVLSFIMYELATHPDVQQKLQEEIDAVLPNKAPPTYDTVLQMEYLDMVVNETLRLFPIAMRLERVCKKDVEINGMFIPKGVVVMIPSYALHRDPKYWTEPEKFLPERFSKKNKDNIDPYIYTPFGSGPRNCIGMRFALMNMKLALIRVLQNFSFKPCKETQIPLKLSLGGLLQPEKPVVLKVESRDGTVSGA
Chain of Dipeptidyl peptidase 4 (P27487 whole entry): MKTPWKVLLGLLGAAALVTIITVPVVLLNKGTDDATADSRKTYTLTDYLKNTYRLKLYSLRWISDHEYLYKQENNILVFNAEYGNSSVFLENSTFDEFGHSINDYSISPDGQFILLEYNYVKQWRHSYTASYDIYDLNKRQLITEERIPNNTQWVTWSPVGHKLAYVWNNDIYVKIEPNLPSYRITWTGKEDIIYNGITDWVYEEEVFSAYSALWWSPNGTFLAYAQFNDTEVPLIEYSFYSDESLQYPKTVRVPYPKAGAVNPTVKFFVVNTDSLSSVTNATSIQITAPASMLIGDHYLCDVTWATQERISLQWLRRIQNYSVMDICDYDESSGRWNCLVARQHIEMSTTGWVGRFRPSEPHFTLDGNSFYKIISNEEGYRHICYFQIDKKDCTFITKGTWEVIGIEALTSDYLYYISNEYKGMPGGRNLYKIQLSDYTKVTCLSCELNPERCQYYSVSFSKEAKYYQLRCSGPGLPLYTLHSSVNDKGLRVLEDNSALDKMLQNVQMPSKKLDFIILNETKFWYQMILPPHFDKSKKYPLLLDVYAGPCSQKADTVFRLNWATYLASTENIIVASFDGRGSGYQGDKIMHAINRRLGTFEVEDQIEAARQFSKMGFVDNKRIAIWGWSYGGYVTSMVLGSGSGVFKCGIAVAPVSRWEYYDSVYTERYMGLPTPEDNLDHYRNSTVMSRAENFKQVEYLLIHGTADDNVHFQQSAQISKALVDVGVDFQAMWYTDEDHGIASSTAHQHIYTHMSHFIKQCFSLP

IC50 (Cytochrome P450 3A4 [6]): > 17000 nM
Compound: CCN(CC)C(=O)CN1Cc2c(nc(C)c(CN)c2-c2ccc(Cl)cc2Cl)C1=O

IC50 (Cytochrome P450 3A4 [6]): > 17000 nM
Compound: CC(=O)N1CCN(C(=O)CN2Cc3c(nc(C)c(CN)c3-c3ccc(Cl)cc3Cl)C2=O)CC1

Ki (Dipeptidyl peptidase 4): 0.67 nM
Ki (Dipeptidyl peptidase 9): > 10000 nM
IC50 (Cytochrome P450 3A4 [6]): > 17000 nM
Compound: Cc1nc2c(c(-c3ccc(Cl)cc3Cl)c1CN)CN(CC(=O)N1CCN(C)CC1)C2=O (atropisomer, axis not shown)

IC50 (Cytochrome P450 3A4 [1]): 17000 nM
Compound: COC(=O)CN1Cc2c(nc(C)c(CN)c2-c2ccc(Cl)cc2Cl)C1=O (single isomer, unassigned; atropisomer)

IC50 (Cytochrome P450 3A4 [1]): > 40000 nM
Compound: Cc1nc2c(c(-c3ccc(Cl)cc3Cl)c1CN)CN(CC(=O)O)C2=O (single isomer, unassigned; atropisomer)

Ki (Dipeptidyl peptidase 4): 9 nM
Ki (Dipeptidyl peptidase 8): > 30000 nM
Ki (Dipeptidyl peptidase 9): > 30000 nM
IC50 (Cytochrome P450 3A4 [1]): > 40000 nM
Compound: Cc1nc2c(c(-c3ccc(Cl)cc3Cl)c1CN)CN(CCO)C2=O (single isomer, unassigned; atropisomer)

Ki (Dipeptidyl peptidase 9): > 30000 nM
IC50 (Cytochrome P450 3A4 [1]): 22000 nM
Compound: COCCN1Cc2c(nc(C)c(CN)c2-c2ccc(Cl)cc2Cl)C1=O (single isomer, unassigned; atropisomer)

IC50 (Cytochrome P450 3A4 [6]): > 17000 nM
Compound: Cc1nc2c(c(-c3ccc(Cl)cc3Cl)c1CN)CN(CC(N)=O)C2=O (single isomer, unassigned; atropisomer)

EC20 [4]: > 50000 nM
EC60 [4]: > 50000 nM
Cmax [5]: 32 nM
IC50 (Cytochrome P450 3A4 [6]): > 17000 nM
Tmax [12]: 0.417 h
Compound: CNC(=O)CN1Cc2c(nc(C)c(CN)c2-c2ccc(Cl)cc2Cl)C1=O (single isomer, unassigned; atropisomer)

IC50 (Cytochrome P450 3A4 [6]): > 17000 nM
Compound: Cc1nc2c(c(-c3ccc(Cl)cc3Cl)c1CN)CN(CC(=O)N(C)C)C2=O (single isomer, unassigned; atropisomer)

IC50 (Cytochrome P450 3A4 [6]): > 17000 nM
Compound: Cc1nc2c(c(-c3ccc(Cl)cc3Cl)c1CN)CN(CC(=O)N1CCC(C(N)=O)CC1)C2=O (single isomer, unassigned; atropisomer)

IC50 (Cytochrome P450 3A4 [6]): > 17000 nM
Compound: Cc1nc2c(c(-c3ccc(Cl)cc3Cl)c1CN)CN(CC(=O)N1CCN(S(C)(=O)=O)CC1)C2=O (single isomer, unassigned; atropisomer)

IC50 (Cytochrome P450 3A4 [6]): > 17000 nM
Compound: Cc1nc2c(c(-c3ccc(Cl)cc3Cl)c1CN)CN(CC(=O)N1CCCC1)C2=O (single isomer, unassigned; atropisomer)

IC50 (Cytochrome P450 3A4 [6]): > 17000 nM
Compound: Cc1nc2c(c(-c3ccc(Cl)cc3Cl)c1CN)CN(CC(=O)N1CCOCC1)C2=O (single isomer, unassigned; atropisomer)

Further lines, the compound ahead of its results:

Compound: COc1cc2c(cc1OC)-c1nc(N)c(CN)c(-c3ccc(Cl)cc3Cl)c1C2
IC50 (Dipeptidyl peptidase 4): 7 nM

Compound: Cc1nc2cn(Cc3ccccc3)cc2c(-c2ccc(Cl)cc2Cl)c1CN
IC50 (Cytochrome P450 2C19): 950 nM
IC50 (Cytochrome P450 3A4 [1]): 1100 nM
IC50 (Cytochrome P450 3A4 [2]): 730 nM
IC50 [3]: 14000 nM
EC20 [4]: 1900 nM
EC60 [4]: > 5600 nM

Compound: Cc1nc2c(c(-c3ccc(Cl)cc3Cl)c1CN)CN(Cc1ccccc1)C2
Ki (Dipeptidyl peptidase 8): > 30000 nM
Ki (Dipeptidyl peptidase 9): > 30000 nM
IC50 (Cytochrome P450 2C19): 340 nM
IC50 (Cytochrome P450 3A4 [1]): 770 nM
IC50 (Cytochrome P450 3A4 [2]): 340 nM
inhibition at 10 µM (hERG (KCNH2)): 67%
EC20 [4]: 1100 nM
EC60 [4]: 3300 nM
Cmax [5]: 76 nM

Compound: Cc1nc2c(c(-c3ccc(Cl)cc3Cl)c1CN)CN(CC(=O)Nc1ccnn1C)C2=O
IC50 (Cytochrome P450 3A4 [6]): > 17000 nM

Compound: Cc1nc2c(c(-c3ccc(Cl)cc3Cl)c1CN)CN(CC(=O)NCc1cccnc1)C2=O
IC50 (Cytochrome P450 3A4 [6]): 7000 nM
IC50 [7]: 80000 nM

Compound: NCc1c(-c2ccc(Cl)cc2Cl)cc(-c2ccccc2)nc1N
IC50 (Dipeptidyl peptidase 4): 920 nM

Compound: COc1ccccc1N1Cc2c(nc(C)c(CN)c2-c2ccc(Cl)cc2Cl)C1=O (atropisomer R)
IC50 (Cytochrome P450 3A4 [1]): 1500 nM and 1300 nM and 2200 nM
INH [8]: 67% and 68%
inhibition at 10 µM (hERG (KCNH2)): 63%

Compound: Cc1nc2c(c(-c3ccc(Cl)cc3Cl)c1CN)CNC2=O (single isomer, unassigned; atropisomer)
Ki (Dipeptidyl peptidase 8): > 30000 nM
Ki (Dipeptidyl peptidase 9): > 30000 nM
IC50 (Cytochrome P450 3A4 [1]): > 40000 nM
inhibition at 10 µM (hERG (KCNH2)): 68%
inhibition (INH) (Cytochrome P450 3A4 [9]): Not Active

Compound: Cc1nc2c(c(-c3ccc(Cl)cc3Cl)c1CN)CN(Cc1ccccc1)C2=O (single isomer, unassigned; atropisomer)
IC50 (Cytochrome P450 2C19): 15000 nM
IC50 (Cytochrome P450 3A4 [1]): 2800 nM
IC50 (Cytochrome P450 3A4 [2]): 1400 nM
EC20 [4]: 470 nM
EC60 [4]: 1400 nM
Cmax [5]: 500 nM

Compound: Cc1nc2c(c(-c3ccc(Cl)cc3Cl)c1CN)CN(c1ccccc1)C2=O (single isomer, unassigned; atropisomer)
IC50 (Cytochrome P450 3A4 [1]): 1200 nM
inhibition at 10 µM (hERG (KCNH2)): 69%
bioavailability [10]: 78%
half-life [11]: 4.4 h

Compound: COc1ccc(N2Cc3c(nc(C)c(CN)c3-c3ccc(Cl)cc3Cl)C2=O)cc1 (single isomer, unassigned; atropisomer)
IC50 (Cytochrome P450 3A4 [1]): 2500 nM
inhibition at 10 µM (hERG (KCNH2)): 67%

Compound: Cc1ccc(N2Cc3c(nc(C)c(CN)c3-c3ccc(Cl)cc3Cl)C2=O)cc1 (single isomer, unassigned; atropisomer)
IC50 (Cytochrome P450 3A4 [1]): 270 nM
inhibition at 10 µM (hERG (KCNH2)): 84%

Compound: Cc1nc2c(c(-c3ccc(Cl)cc3Cl)c1CN)CN(c1ccc(Cl)cc1)C2=O (single isomer, unassigned; atropisomer)
IC50 (Cytochrome P450 3A4 [1]): 390 nM
inhibition at 10 µM (hERG (KCNH2)): 82%

Compound: Cc1nc2c(c(-c3ccc(Cl)cc3Cl)c1CN)CN(c1ccc(F)cc1)C2=O (single isomer, unassigned; atropisomer)
IC50 (Cytochrome P450 3A4 [1]): 1400 nM
inhibition at 10 µM (hERG (KCNH2)): 92%

Compound: Cc1nc2c(c(-c3ccc(Cl)cc3Cl)c1CN)CN(c1ccc(C#N)cc1)C2=O (single isomer, unassigned; atropisomer)
IC50 (Cytochrome P450 3A4 [1]): 670 nM
inhibition at 10 µM (hERG (KCNH2)): 97%

Compound: Cc1nc2c(c(-c3ccc(Cl)cc3Cl)c1CN)CN(C)C2=O (single isomer, unassigned; atropisomer)
Ki (Dipeptidyl peptidase 4): 29 nM
Ki (Dipeptidyl peptidase 8): > 30000 nM
IC50 (Cytochrome P450 3A4 [1]): > 40000 nM

From ChEMBL document CHEMBL1909536, “7-Oxopyrrolopyridine-derived DPP4 inhibitors-mitigation of CYP and hERG liabilities via introduction of polar functionalities in the active site” (Bioorg Med Chem Lett, 2011)
